# Source: patent publication US20240417411A1, “COMPOUNDS AND METHODS FOR TREATMENT OF VIRAL INFECTIONS” (priority 2023, published 2024)
# Read-outs that look alike come from different tables or passages of the source.
# Tests used:
# RSV-Luc5 = assay: microbe, parasite or virus in culture; assay type: cell-based; details: human respiratory syncytial virus, NHBE, 72 h, read-out: RSV NHBE EC50 (nM)
# SARS-CoV2-NLuc = assay: microbe, parasite or virus in culture; assay type: cell-based, SARS Coronavirus 2; details: Severe acute respiratory syndrome coronavirus 2, 48 h, read-out: SARS-CoV2 EC50 (nM)
# in vitro [1] = assay type: cell-based; details: human
# Procedure, shortened: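 Uninfected MT4 cells cultured with compound 4–5 days at 37 °C, equilibrated to 25 °C, and viability read by CellTiter-Glo luminescence. Untreated and 2 μM puromycin-treated cells defined 100% and 0% viability; CC50, the concentration reducing viability by 50%, from non-linear regression.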
# in vitro [2] = assay type: in vitro ADME; details: human, s9, pH 7.4
# Procedure, shortened: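 Test compounds at 2 μM final were incubated in a GI S9 reaction mixture, reactions being started by substrate addition. Diluted supernatants were quantified by LC/MS on a Q-Exactive using analyte/internal standard peak area ratios, with 0.1% formic acid water/acetonitrile gradient elution and 5 ppm mass tolerance.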
# [3] = system: Caco-2 cells (clone C2BBe1); details: human, Caco-2
SMILES,EC50 (RSV-Luc5) [nM],Human Plasma T1/2 (2 μM) [s],EC50 (SARS-CoV2-NLuc) [nM],CC50 (in vitro [1]) [µM],half-life at 2 μM (in vitro [2]) [s],Caco2 A to B [3],Caco2 B to A [3],Human Plasma T1/2 [s]
"CC(C)OC(=O)OC[C@H]1O[C@@](C#N)(c2ccc3c(N)ncnn23)[C@@H]2OC(=O)CCC=CCCC(=O)O[C@@H]21 [Compound C9, ((10aR,11R,13R,13aR)-13-(4-aminopyrrolo[2,1-f][1,2,4]triazin-7-yl)-13-cyano-2,9-dioxo-2,3,4,7,8,9,10a,11,13,13a-decahydrofuro[3,4-b][1,4]dioxacyclododecin-11-yl)methyl isopropyl carbonate]",3050,180,27500,> 50,39.3,18.29,17.94,
"CCOC(=O)OC[C@H]1O[C@@](C#N)(c2ccc3c(N)ncnn23)[C@@H]2OC(=O)CCCC(=O)O[C@@H]21 [Compound C12, ((7aR,8R,10R,10aR)-10-(4-aminopyrrolo[2,1-f][1,2,4]triazin-7-yl)-10-cyano-2,6-dioxooctahydro-2H-furo[3,4-b][1,4]dioxonin-8-yl)methyl ethyl carbonate]",7940,,5880,> 50,37.3,1.94,5.31,180
"COC(=O)OC[C@H]1O[C@@](C#N)(c2ccc3c(N)ncnn23)[C@@H]2OC(=O)CCCC(=O)O[C@@H]21 [Compound C13, ((7aR,8R,10R,10aR)-10-(4-aminopyrrolo[2,1-f][1,2,4]triazin-7-yl)-10-cyano-2,6-dioxooctahydro-2H-furo[3,4-b][1,4]dioxonin-8-yl)methyl methyl carbonate]",30000,180,4100,> 50,36.8,2.1,5.18,
"COC(C)(C)COC(=O)OC[C@H]1O[C@@](C#N)(c2ccc3c(N)ncnn23)[C@@H]2OC(=O)CCCC(=O)O[C@@H]21 [Compound C22, ((7aR,8R,10R,10aR)-10-(4-aminopyrrolo[2,1-f][1,2,4]triazin-7-yl)-10-cyano-2,6-dioxooctahydro-2H-furo[3,4-b][1,4]dioxonin-8-yl)methyl (2-methoxy-2-methylpropyl) carbonate]",4850,180,5110,> 50,34.1,0.88,3.46,
"N#C[C@@]1(c2ccc3c(N)ncnn23)O[C@H](COC(=O)OC2CCOC2)[C@H]2OC(=O)CCCC(=O)O[C@H]21 (stereo partly drawn) [Compound C23, ((7aR,8R,10R,10aR)-10-(4-aminopyrrolo[2,1-f][1,2,4]triazin-7-yl)-10-cyano-2,6-dioxooctahydro-2H-furo[3,4-b][1,4]dioxonin-8-yl)methyl (tetrahydrofuran-3-yl) carbonate]",19900,180,18400,> 50,34.1,0.66,4.38,
"CC(C)C(=O)OC[C@H]1O[C@@](C#N)(c2ccc3c(N)ncnn23)[C@@H]2OC(=O)CCCC(=O)O[C@@H]21 [Compound C54, ((7aR,8R,10R,10aR)-10-(4-aminopyrrolo[2,1-f][1,2,4]triazin-7-yl)-10-cyano-2,6-dioxooctahydro-2H-furo[3,4-b][1,4]dioxonin-8-yl)methyl isobutyrate]",6040,180,7880,> 50,35.3,1,2.98,
